From publication PMC3568510 (Biochemistry, 2013)

Target: CC3396
Assay type: biochemical, Caulobacter vibrioides (Caulobacter crescentus)

Compound | Ki [nM]
Nc1nc2c(ncn2[C@@H]2O[C@@H]3CO[P@@](O)(=S)O[C@H]4[C@@H](O)[C@H](n5cnc6c(=O)[nH]c(N)nc65)O[C@@H]4CO[P@](O)(=S)O[C@H]3[C@H]2O)c(=O)[nH]1 [c-(RPSP)-di-Gps] | ~820
Nc1nc2c(ncn2[C@@H]2O[C@@H]3CO[P@@](O)(=S)O[C@H]4[C@@H](O)[C@H](n5cnc6c(=O)[nH]c(N)nc65)O[C@@H]4CO[P@@](O)(=S)O[C@H]3[C@H]2O)c(=O)[nH]1 [c-(RPRP)-di-Gps] | ~480
